# Patent publication US7803930B2, “Antisense modulation of apolipoprotein B-expression” (Isis Pharmaceuticals, Inc., priority 2002, dated 2010)
# In the oligonucleotide strings, read from the 5' end, every base follows the letter of its sugar. An asterisk marks phosphorothioate; unmarked linkages are phosphodiester. Other units and linkages are bracketed, terminal groups are in braces. A string of capitals states the bases alone. e = 2'-O-(2-methoxyethyl) (MOE); [5mC] = 5-methylcytosine; d = 2'-deoxy (DNA)
# Test system: human apolipoprotein B mRNA
# Test: Inhibition of human apolipoprotein B mRNA levels in HepG2 cells, quantitative real-time PCR
# Type: cell-based
# Settings: HepG2 cells treated with 150 nM of compound; averages from two experiments; quantitative real-time PCR
# Summary of the method: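 HepG2 cells at 80% confluency were transfected with antisense oligonucleotide using 3.75 μg/mL Lipofectin in Opti-MEM for 4-7 h and harvested 16-24 h after treatment. Apolipoprotein B mRNA was measured by real-time RT-PCR and normalized to GAPDH or RiboGreen total RNA. Percent inhibition came from untreated-control standard curves.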
row,Substance,% INHIB (inhibition of human apolipoprotein B mRNA levels)
1,281589 (eT*e[5mC]*eA*eG*e[5mC]*dA*dA*dG*dG*d[5mC]*dT*dT*dT*dG*d[5mC]*e[5mC]*e[5mC]*eT*e[5mC]*eA; antisense) [compound 281589],90%
2,281590 (e[5mC]*eT*eG*e[5mC]*eT*dT*d[5mC]*d[5mC]*d[5mC]*dT*dT*d[5mC]*dT*dG*dG*eA*eA*eT*eG*eG; antisense) [compound 281590],84%
3,281591 (eT*eG*e[5mC]*e[5mC]*eA*d[5mC]*dA*dT*dT*dG*d[5mC]*d[5mC]*d[5mC]*dT*dT*e[5mC]*e[5mC]*eT*e[5mC]*eG; antisense) [compound 281591],90%
4,281592 (eG*e[5mC]*eT*eG*eA*dT*d[5mC]*dA*dG*dA*dG*dT*dT*dG*dA*e[5mC]*eA*eA*eG*eG; antisense) [compound 281592],56%
5,281593 (eT*eA*e[5mC]*eT*eG*dA*d[5mC]*dA*dG*dG*dA*d[5mC]*dT*dG*dG*e[5mC]*eT*eG*e[5mC]*eT; antisense) [compound 281593],93%
6,281594 (eG*eA*eT*eG*eG*d[5mC]*dT*dT*d[5mC]*dT*dG*d[5mC]*d[5mC]*dA*d[5mC]*eA*eT*eG*e[5mC]*eT; antisense) [compound 281594],74%
7,281595 (eG*eA*eT*eG*eT*dG*dG*dA*dT*dT*dT*dG*dG*dT*dG*e[5mC]*eT*e[5mC]*eT*e[5mC]; antisense) [compound 281595],76%
8,281596 (eT*eG*eA*e[5mC]*eT*dG*d[5mC]*dT*dT*d[5mC]*dA*dT*d[5mC]*dA*d[5mC]*eT*eG*eA*eG*eG; antisense) [compound 281596],77%
9,281597 (eG*eG*eT*eA*eG*dG*dT*dG*dA*d[5mC]*d[5mC]*dA*d[5mC]*dA*dT*e[5mC]*eT*eA*eT*e[5mC]; antisense) [compound 281597],36%
10,281598 (eT*e[5mC]*eG*e[5mC]*eA*dG*d[5mC]*dT*dG*d[5mC]*dT*dG*dT*dG*d[5mC]*eT*eG*eA*eG*eG; antisense) [compound 281598],70%
11,281599 (eT*eT*e[5mC]*e[5mC]*eA*dA*dT*dG*dA*d[5mC]*d[5mC]*d[5mC]*dG*d[5mC]*dA*eG*eA*eA*eT*e[5mC]; antisense) [compound 281599],74%
12,281600 (antisense eG*eA*eT*e[5mC]*eA*dT*d[5mC]*dA*dG*dT*dG*dA*dT*dG*dG*e[5mC]*eT*eT*eT*eG) [compound 281600],52%
13,281601 (antisense eA*eG*e[5mC]*e[5mC]*eT*dG*dG*dA*dT*dG*dG*d[5mC]*dA*dG*d[5mC]*eT*eT*eT*e[5mC]*eT) [compound 281601],83%
14,281602 (antisense eG*eT*e[5mC]*eT*eG*dA*dA*dG*dA*dA*dG*dA*dA*d[5mC]*d[5mC]*eT*e[5mC]*e[5mC]*eT*eG) [compound 281602],84%
15,281603 (antisense eT*eA*eT*e[5mC]*eT*dG*d[5mC]*d[5mC]*dT*dG*dT*dG*dA*dA*dG*eG*eA*e[5mC]*eT*e[5mC]) [compound 281603],82%
16,281604 (antisense e[5mC]*eT*eG*eA*eG*dT*dT*d[5mC]*dA*dA*dG*dA*dT*dA*dT*eT*eG*eG*e[5mC]*eA) [compound 281604],78%
17,281605 (antisense e[5mC]*eT*eT*e[5mC]*e[5mC]*dA*dA*dG*d[5mC]*d[5mC]*dA*dA*dT*d[5mC]*dT*e[5mC]*eG*eA*eT*eG) [compound 281605],82%
18,281606 (antisense eT*eG*e[5mC]*eA*eA*d[5mC]*dT*dG*dT*dA*dA*dT*d[5mC]*d[5mC]*dA*eG*e[5mC]*eT*e[5mC]*e[5mC]) [compound 281606],86%
19,281607 (antisense e[5mC]*e[5mC]*eA*eG*eT*dT*d[5mC]*dA*dG*d[5mC]*d[5mC]*dT*dG*d[5mC]*dA*eT*eG*eT*eT*eG) [compound 281607],84%
20,281608 (antisense eG*eT*eA*eG*eA*dG*dA*d[5mC]*d[5mC]*dA*dA*dA*dT*dG*dT*eA*eA*eT*eG*eT) [compound 281608],62%
21,281609 (antisense e[5mC]*eG*eT*eT*eG*dG*dA*dG*dT*dA*dA*dG*d[5mC]*dG*d[5mC]*e[5mC]*eT*eG*eA*eG) [compound 281609],70%
22,281610 (antisense e[5mC]*eA*eG*e[5mC]*eT*d[5mC]*dT*dA*dA*dT*d[5mC]*dT*dG*dG*dT*eG*eT*e[5mC]*e[5mC]*e[5mC]) [compound 281610],69%

row,Substance,% INHIB (inhibition of human apolipoprotein B mRNA levels)
1,281611 (antisense e[5mC]*eT*eG*eT*e[5mC]*d[5mC]*dT*d[5mC]*dT*d[5mC]*dT*d[5mC]*dT*dG*dG*eA*eG*e[5mC]*eT*e[5mC]) [compound 281611],93%
2,281612 (antisense e[5mC]*eA*eA*eG*eG*dT*d[5mC]*dA*dT*dA*d[5mC]*dT*d[5mC]*dT*dG*e[5mC]*e[5mC]*eG*eA*eT) [compound 281612],83%
3,281613 (antisense eG*eT*eA*eT*eG*dG*dA*dA*dA*dT*dA*dA*d[5mC]*dA*d[5mC]*e[5mC]*e[5mC]*eT*eT*eG) [compound 281613],70%
4,281614 (antisense eT*eA*eA*eG*e[5mC]*dT*dG*dT*dA*dG*d[5mC]*dA*dG*dA*dT*eG*eA*eG*eT*e[5mC]) [compound 281614],63%
5,281615 (antisense eT*eA*eG*eA*eT*d[5mC]*dT*d[5mC]*dT*dG*dG*dA*dG*dG*dA*eT*eT*eT*eG*e[5mC]) [compound 281615],81%
6,281616 (antisense eG*eT*e[5mC]*eT*eA*dG*dA*dA*d[5mC]*dA*d[5mC]*d[5mC]*d[5mC]*dA*dG*eG*eA*eG*eA*eG) [compound 281616],66%
7,281617 (antisense eA*e[5mC]*e[5mC]*eA*e[5mC]*dA*dG*dA*dG*dT*d[5mC]*dA*dG*d[5mC]*d[5mC]*eT*eT*e[5mC]*eA*eT) [compound 281617],89%
8,281618 (antisense eA*eA*eG*e[5mC]*eA*dG*dA*d[5mC]*dA*dT*d[5mC]*dT*dG*dT*dG*eG*eT*e[5mC]*e[5mC]*e[5mC]) [compound 281618],90%
9,281619 (antisense e[5mC]*eT*e[5mC]*eT*e[5mC]*d[5mC]*dA*dT*dT*dG*dA*dG*d[5mC]*d[5mC]*dG*eG*e[5mC]*e[5mC]*eA*eG) [compound 281619],96%
10,281620 (antisense e[5mC]*e[5mC]*eT*eG*eA*dT*dA*dT*dT*d[5mC]*dA*dG*dA*dA*d[5mC]*eG*e[5mC]*eA*eG*e[5mC]) [compound 281620],89%
11,281621 (antisense e[5mC]*eA*eG*eT*eG*d[5mC]*d[5mC]*dT*dA*dA*dG*dA*dT*dG*dT*e[5mC]*eA*eG*e[5mC]*eA) [compound 281621],53%
12,281622 (antisense eA*eG*e[5mC]*eA*e[5mC]*d[5mC]*dA*dG*dG*dA*dG*dA*d[5mC]*dT*dA*e[5mC]*eA*e[5mC]*eT*eT) [compound 281622],88%
13,281623 (antisense e[5mC]*e[5mC]*e[5mC]*eA*eT*d[5mC]*d[5mC]*dA*dG*dA*d[5mC]*dT*dG*dA*dA*eT*eT*eT*eT*eG) [compound 281623],59%
14,281624 (antisense eG*eG*eT*eT*e[5mC]*dT*dA*dG*d[5mC]*d[5mC]*dG*dT*dA*dG*dT*eT*eT*e[5mC]*e[5mC]*e[5mC]) [compound 281624],75%
15,281626 (antisense eA*eT*eG*eT*eG*d[5mC]*dA*dT*d[5mC]*dG*dA*dT*dG*dG*dT*e[5mC]*eA*eT*eG*eG) [compound 281626],88%
16,281627 (antisense e[5mC]*e[5mC]*eA*eG*eA*dG*dA*dG*d[5mC]*dG*dA*dG*dT*dT*dT*e[5mC]*e[5mC]*e[5mC]*eA*eT) [compound 281627],82%
17,281628 (antisense e[5mC]*eT*eA*eG*eA*d[5mC]*dA*d[5mC]*dG*dA*dG*dA*dT*dG*dA*eT*eG*eA*e[5mC]*eT) [compound 281628],81%
18,281629 (antisense eT*e[5mC]*e[5mC]*eA*eA*dG*dT*d[5mC]*d[5mC]*dT*dG*dG*d[5mC]*dT*dG*eT*eA*eT*eT*e[5mC]) [compound 281629],83%
19,281630 (antisense e[5mC]*eG*eT*e[5mC]*e[5mC]*dA*dG*dT*dA*dA*dG*d[5mC]*dT*d[5mC]*d[5mC]*eA*e[5mC]*eG*e[5mC]*e[5mC]) [compound 281630],82%
20,281631 (antisense eT*e[5mC]*eA*eA*e[5mC]*dG*dG*d[5mC]*dA*dT*d[5mC]*dT*d[5mC]*dT*d[5mC]*eA*eT*e[5mC]*eT*e[5mC]) [compound 281631],88%
21,281632 (antisense eT*eG*eA*eT*eA*dG*dT*dG*d[5mC]*dT*d[5mC]*dA*dT*d[5mC]*dA*eA*eG*eA*e[5mC]*eT) [compound 281632],75%
22,281633 (antisense eG*eA*eT*eT*e[5mC]*dT*dG*dA*dT*dT*dT*dG*dG*dT*dA*e[5mC]*eT*eT*eA*eG) [compound 281633],73%
